According to US20100092526A1, “NANOEMULSION THERAPEUTIC COMPOSITIONS AND METHODS OF USING THE SAME” (NanoBio Corporation, priority 2008, published 2010):

How the values were obtained:
[1] = tested on: Burkholderia cepacia; assay: MIC/MBC of nanoemulsions against gram-negative isolates (CLSI, alamar blue); type: cell-based; conditions: Burkholderia cepacia (n = 5); nanoemulsions in the presence of 5 mM EDTA; in µg/mL
[2] = tested on: Acinetobacter baumannii; assay: as above; type: cell-based; conditions: Acinetobacter baumannii (n = 5)
[3] = tested on: Stenotrophomonas maltophilia; assay: as above; type: cell-based; conditions: Stenotrophomonas maltophilia (n = 5); nanoemulsions in the presence of 5 mM EDTA
[4] = tested on: Stenotrophomonas maltophilia; assay: MIC/MBC against CF isolates (CLSI, alamar blue)
[5] = tested on: Escherichia coli; assay: MIC/MBC of nanoemulsions against gram-negative isolates (CLSI, alamar blue); type: cell-based; conditions: Escherichia coli (n = 5), nanoemulsions in the presence of 5 mM EDTA
[6] = tested on: Klebsiella pneumoniae; assay: as above; type: cell-based; conditions: Klebsiella pneumoniae (n = 5), nanoemulsions in the presence of 5 mM EDTA
[7] = tested on: Burkholderia cenocepacia; assay: MIC/MBC against CF isolates (CLSI, alamar blue)
[8] = tested on: Proteus mirabilis; assay: MIC/MBC of nanoemulsions against gram-negative isolates (CLSI, alamar blue); type: cell-based; conditions: Proteus mirabilis (n = 5), nanoemulsions in the presence of 5 mM EDTA
[9] = tested on: Pseudomonas aeruginosa; assay: MIC/MBC against CF isolates (CLSI, alamar blue)
[10] = tested on: Pseudomonas aeruginosa; assay: MIC/MBC of nanoemulsions against gram-negative isolates (CLSI, alamar blue); type: cell-based; conditions: Pseudomonas aeruginosa (n = 5)
[11] = tested on: Acinetobacter baumannii; assay: MIC/MBC against clinical isolates (CLSI, alamar blue)
[12] = nanoemulsions in the presence of 5 mM EDTA
[13] = 11 CF Stenotrophomonas isolates
[14] = CF Stenotrophomonas isolate NB41
[15] = CF Stenotrophomonas isolate NB42
[16] = CF Stenotrophomonas isolate NB43
[17] = CF Stenotrophomonas isolate NB44
[18] = CF Stenotrophomonas isolate NB45
[19] = CF Stenotrophomonas isolate Steno 1
[20] = CF Stenotrophomonas isolate Steno 2
[21] = CF Stenotrophomonas isolate Steno 3
[22] = CF Stenotrophomonas isolate Steno 4
[23] = CF Stenotrophomonas isolate Steno 6
[24] = CF Stenotrophomonas isolate Steno 8
[25] = S. maltophilia, NE with 1 mM EDTA
[26] = Stenotrophomonas, each drug alone
[27] = B. cenocepacia, NE with 5 mM EDTA
[28] = P. aeruginosa, NE with 5 mM EDTA
[29] = A. baumannii, NE with 1 mM EDTA

For Colistin, the “MIC Range” value [1] was over 4, the “% resistant” value [2] was 0.0% and the “% susceptible” value [2] was 100.0%. For the same substance, the MIC50 [2, 12] was at most 0.5 µg/mL, the “MIC Range” value [2, 12] was “<=0.5-2 ^” and the MIC50 [3] was at most 0.5 µg/mL. The “MIC Range” value [3] was “<=0.5-1 ^”, the “MBC 50” value [4, 13] was over 32 µg/mL and the “MBC 90” value [4, 13] was over 32 µg/mL. The “MIC50” value [4, 13] was 16 µg/mL, the “MIC90” value [4, 13] was over 32 µg/mL and the MBC [4, 14] was 32 µg/mL. For the same substance, the MIC [4, 14] was 2 µg/mL, the MBC [4, 15] was 8 µg/mL and the MIC [4, 15] was 2 µg/mL. For the same substance, the MBC [4, 16] was over 32 µg/mL, the MIC [4, 16] was 16 µg/mL and the MBC [4, 17] was over 32 µg/mL. For the same substance, the MIC [4, 17] was 32 µg/mL, the MBC [4, 18] was 16 µg/mL and the MIC [4, 18] was 8 µg/mL. It also gave an MBC [4, 19] of over 32 µg/mL, an MIC [4, 19] of over 32 µg/mL and an MBC [4, 20] of over 32 µg/mL. It also gave an MIC [4, 20] of 32 µg/mL, an MBC [4, 21] of over 32 µg/mL and an MIC [4, 21] of over 32 µg/mL. The MBC [4, 22] was 4 µg/mL, the MIC [4, 22] was 1 µg/mL and the MBC [4, 23] was over 32 µg/mL. For the same substance, the MIC [4, 23] was 16 µg/mL, the MBC [4, 24] was 32 µg/mL and the MIC [4, 24] was 8 µg/mL. The MBC 90 [4, 25] was over 32 µg/mL, the MIC90 [4, 25] was over 32 µg/mL and the “MBC 50” value [4, 26] was over 32 µg/mL. The “MBC 90” value [4, 26] was over 32 µg/mL, the “MIC50” value [4, 26] was 16 µg/mL and the “MIC90” value [4, 26] was over 32 µg/mL. The MIC50 [5] was at most 0.5 µg/mL, the “MIC Range” value ([5]; in µg/mL) was “<=0.5” and the MIC50 [6] was at most 0.5 µg/mL. For the same substance, the “MIC Range” value ([6]; in µg/mL) was “<=0.5”, the “MBC 50” value ([7]; 10 CF Burkholderia isolates) was over 32 µg/mL and the “MBC 90” value ([7]; 10 CF Burkholderia isolates) was over 32 µg/mL. For the same substance, the “MIC50” value ([7]; 10 CF Burkholderia isolates) was over 32 µg/mL, the “MIC90” value ([7]; 10 CF Burkholderia isolates) was over 32 µg/mL and the MBC 90 [7, 27] was over 32 µg/mL. For the same substance, the MIC90 [7, 27] was over 32 µg/mL, the “MBC 50” value ([7]; Burkholderia, each drug alone) was over 32 µg/mL and the “MBC 90” value ([7]; Burkholderia, each drug alone) was over 32 µg/mL. For the same substance, the “MIC50” value ([7]; Burkholderia, each drug alone) was over 32 µg/mL, the “MIC90” value ([7]; Burkholderia, each drug alone) was over 32 µg/mL and the MBC ([7]; CF Burkholderia isolate NB21) was over 32 µg/mL. The MIC ([7]; CF Burkholderia isolate NB21) was over 32 µg/mL, the MBC ([7]; CF Burkholderia isolate NB22) was over 32 µg/mL and the MIC ([7]; CF Burkholderia isolate NB22) was over 32 µg/mL. For the same substance, the MBC ([7]; CF Burkholderia isolate NB23) was over 32 µg/mL, the MIC ([7]; CF Burkholderia isolate NB23) was over 32 µg/mL and the MBC ([7]; CF Burkholderia isolate NB24) was over 32 µg/mL. The MIC ([7]; CF Burkholderia isolate NB24) was over 32 µg/mL, the MBC ([7]; CF Burkholderia isolate NB25) was over 32 µg/mL and the MIC ([7]; CF Burkholderia isolate NB25) was over 32 µg/mL. The MBC ([7]; CF Burkholderia isolate NB26) was over 32 µg/mL, the MIC ([7]; CF Burkholderia isolate NB26) was 32 µg/mL and the MBC ([7]; CF Burkholderia isolate NB27) was over 32 µg/mL. It also gave an MIC ([7]; CF Burkholderia isolate NB27) of over 32 µg/mL, an MBC ([7]; CF Burkholderia isolate NB28b) of over 32 µg/mL and an MIC ([7]; CF Burkholderia isolate NB28b) of over 32 µg/mL. The MBC ([7]; CF Burkholderia isolate NB29) was over 32 µg/mL, the MIC ([7]; CF Burkholderia isolate NB29) was over 32 µg/mL and the MBC ([7]; CF Burkholderia isolate NB30) was over 32 µg/mL. The MIC ([7]; CF Burkholderia isolate NB30) was over 32 µg/mL, the MIC50 [8] was over 4 µg/mL and the “MIC Range” value ([8]; in µg/mL) was over 4. For the same substance, the “MBC 50” value ([9]; 20 CF Pseudomonas isolates) was 4 µg/mL, the “MBC 90” value ([9]; 20 CF Pseudomonas isolates) was 8 µg/mL and the “MIC50” value ([9]; 20 CF Pseudomonas isolates) was 2 µg/mL. The “MIC90” value ([9]; 20 CF Pseudomonas isolates) was 2 µg/mL, the MBC ([9]; CF Pseudomonas isolate NB1) was over 8 µg/mL and the MIC ([9]; CF Pseudomonas isolate NB1) was 2 µg/mL. The MBC ([9]; CF Pseudomonas isolate NB2) was 8 µg/mL, the MIC ([9]; CF Pseudomonas isolate NB2) was 1 µg/mL and the MBC ([9]; CF Pseudomonas isolate NB3) was 8 µg/mL. For the same substance, the MIC ([9]; CF Pseudomonas isolate NB3) was 1 µg/mL, the MBC ([9]; CF Pseudomonas isolate NB4) was 4 µg/mL and the MIC ([9]; CF Pseudomonas isolate NB4) was 2 µg/mL. It also gave an MBC ([9]; CF Pseudomonas isolate NB5) of 8 µg/mL, an MIC ([9]; CF Pseudomonas isolate NB5) of 2 µg/mL and an MBC ([9]; CF Pseudomonas isolate NB6) of 4 µg/mL. The MIC ([9]; CF Pseudomonas isolate NB6) was 2 µg/mL, the MBC ([9]; CF Pseudomonas isolate NB7) was 4 µg/mL and the MIC ([9]; CF Pseudomonas isolate NB7) was 2 µg/mL. It also gave an MBC ([9]; CF Pseudomonas isolate NB8) of 8 µg/mL, an MIC ([9]; CF Pseudomonas isolate NB8) of 2 µg/mL and an MBC ([9]; CF Pseudomonas isolate NB9) of 8 µg/mL. For the same substance, the MIC ([9]; CF Pseudomonas isolate NB9) was 2 µg/mL, the MBC ([9]; CF Pseudomonas isolate NB10) was 2 µg/mL and the MIC ([9]; CF Pseudomonas isolate NB10) was 2 µg/mL. It also gave an MBC ([9]; CF Pseudomonas isolate NB11) of 4 µg/mL, an MIC ([9]; CF Pseudomonas isolate NB11) of 1 µg/mL and an MBC ([9]; CF Pseudomonas isolate NB12) of 8 µg/mL. It also gave an MIC ([9]; CF Pseudomonas isolate NB12) of 4 µg/mL, an MBC ([9]; CF Pseudomonas isolate NB13) of 8 µg/mL and an MIC ([9]; CF Pseudomonas isolate NB13) of 2 µg/mL. The MBC ([9]; CF Pseudomonas isolate NB14) was 4 µg/mL, the MIC ([9]; CF Pseudomonas isolate NB14) was 2 µg/mL and the MBC ([9]; CF Pseudomonas isolate NB15) was 8 µg/mL. It also gave an MIC ([9]; CF Pseudomonas isolate NB15) of 2 µg/mL, an MBC ([9]; CF Pseudomonas isolate NB16) of 4 µg/mL and an MIC ([9]; CF Pseudomonas isolate NB16) of 2 µg/mL. The MBC ([9]; CF Pseudomonas isolate NB17) was 4 µg/mL, the MIC ([9]; CF Pseudomonas isolate NB17) was 1 µg/mL and the MBC ([9]; CF Pseudomonas isolate NB18) was 4 µg/mL. It also gave an MIC ([9]; CF Pseudomonas isolate NB18) of 1 µg/mL, an MBC ([9]; CF Pseudomonas isolate NB19) of 4 µg/mL and an MIC ([9]; CF Pseudomonas isolate NB19) of 2 µg/mL. The MBC ([9]; CF Pseudomonas isolate NB20) was over 8 µg/mL, the MIC ([9]; CF Pseudomonas isolate NB20) was 2 µg/mL and the MBC 90 [9, 28] was 8 µg/mL. For the same substance, the MIC90 [9, 28] was 2 µg/mL, the “MBC 50” value ([9]; second MBC 50 line of the summary, Stenotrophomonas, values equal those of the CF Pseudomonas isolates) was 4 µg/mL and the “MBC 90” value ([9]; second MBC 90 line of the summary, Stenotrophomonas, values equal those of the CF Pseudomonas isolates) was 8 µg/mL. The “% resistant” value [10] was 0.0%, the “% susceptible” value [10] was 100.0% and the MIC50 [10, 12] was 1 µg/mL. The “MIC Range” value [10, 12] was “<=0.5-2 ^”, the “MBC 50” value ([11]; 10 Acinetobacter isolates) was 4 µg/mL and the “MBC 90” value ([11]; 10 Acinetobacter isolates) was over 16 µg/mL. The “MIC50” value ([11]; 10 Acinetobacter isolates) was 1 µg/mL, the “MIC90” value ([11]; 10 Acinetobacter isolates) was 1 µg/mL and the MBC 90 [11, 29] was over 16 µg/mL. The MIC90 [11, 29] was 1 µg/mL, the MBC ([11]; Acinetobacter isolate NB31) was 1 µg/mL and the MIC ([11]; Acinetobacter isolate NB31) was 1 µg/mL. The MBC ([11]; Acinetobacter isolate NB32) was 8 µg/mL, the MIC ([11]; Acinetobacter isolate NB32) was 1 µg/mL and the MBC ([11]; Acinetobacter isolate NB33) was 4 µg/mL. For the same substance, the MIC ([11]; Acinetobacter isolate NB33) was 1 µg/mL, the MBC ([11]; Acinetobacter isolate NB34) was 1 µg/mL and the MIC ([11]; Acinetobacter isolate NB34) was 1 µg/mL. The MBC ([11]; Acinetobacter isolate NB35) was 4 µg/mL, the MIC ([11]; Acinetobacter isolate NB35) was 1 µg/mL and the MBC ([11]; Acinetobacter isolate NB36) was 1 µg/mL. The MIC ([11]; Acinetobacter isolate NB36) was 1 µg/mL, the MBC ([11]; Acinetobacter isolate NB37) was over 16 µg/mL and the MIC ([11]; Acinetobacter isolate NB37) was 1 µg/mL. It also gave an MBC ([11]; Acinetobacter isolate NB38) of over 16 µg/mL, an MIC ([11]; Acinetobacter isolate NB38) of 1 µg/mL and an MBC ([11]; Acinetobacter isolate NB39) of 8 µg/mL. For the same substance, the MIC ([11]; Acinetobacter isolate NB39) was 1 µg/mL, the MBC ([11]; Acinetobacter isolate NB40) was over 16 µg/mL and the MIC ([11]; Acinetobacter isolate NB40) was 1 µg/mL. The “MBC 50” value ([11]; Acinetobacter, each drug alone) was 4 µg/mL, the “MBC 90” value ([11]; Acinetobacter, each drug alone) was over 16 µg/mL and the “MIC50” value ([11]; Acinetobacter, each drug alone) was 1 µg/mL. The “MIC90” value ([11]; Acinetobacter, each drug alone) was 1 µg/mL.
